Experiment [1] addresses T1, ligand-binding domain of RORγ (RORγ-LBD) (Homo sapiens, UniProt P51449).
T1 construct: purchased Invitrogen
T1 sequence (P51449 269-508 limits assumed): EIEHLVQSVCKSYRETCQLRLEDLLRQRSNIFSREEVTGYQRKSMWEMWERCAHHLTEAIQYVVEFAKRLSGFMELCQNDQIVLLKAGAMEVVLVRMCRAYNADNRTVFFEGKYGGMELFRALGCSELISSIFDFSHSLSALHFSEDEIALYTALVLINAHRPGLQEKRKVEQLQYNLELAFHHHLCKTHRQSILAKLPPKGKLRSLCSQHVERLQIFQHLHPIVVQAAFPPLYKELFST
Nature of the experiment: Inhibitory effect on RORγ-coactivator binding (LanthaScreen TR-FRET RORγ Coactivator Assay). The settings on record: at 33 μmol/L of the test compound; read-out: RORγ-coactivator binding inhibition rate (%). In short, it runs like this: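 TR-FRET: 4 nmol/L GST-RORγ-LBD with compound (1% DMSO) in Coregulator Buffer D plus 5 mmol/L DTT, then 150 nmol/L fluorescein-TRAP220/DRIP-2 and 32 nmol/L Tb-anti-GST antibody; 16–24 hours at room temperature. 520/495 nm ratio (320 nm excitation), background-corrected against control, gives % inhibition of coactivator binding.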
On the technique in general: In TR-FRET formats the signal depends on donor and acceptor labels being close together.

Experiment [2] has as its system IL-17 production in mouse splenocytes. The experiment can be described thus: Suppressive effect on IL-17 production by IL-23 stimulation in mouse splenocytes. Particulars: Splenocyte, 72 h, at 5 μmol/L of the test compound, 10 ng/mL human IL-23, 3 days, read-out: IL-17 production inhibition rate (%). It is filed as cell-based. In a few lines:
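Splenocytes from male C57BL/6J mice (3×10^5/well, with 100 U/mL human IL-2) stimulated with 10 ng/mL human IL-23 plus compound (0.1% DMSO) for 3 days at 37 °C. Supernatant IL-17 measured by ELISA; inhibition calculated against unstimulated and IL-23-only wells.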

Inhibition data for 3 compounds are collected here from patent US10364222B2, “Cyclic amine derivative and medical use thereof” (Toray Industries, Inc., priority 2016, dated 2019).

Consider `CN(CC(=O)N1CCCC[C@@H]1C(=O)Nc1ccc(-c2ccccc2OC(F)(F)F)c(Cl)c1)S(C)(=O)=O` [Example 29, (R)-N-(2-chloro-2′-(trifluoromethoxy)-[1,1′-biphenyl]-4-yl)-1-(2-(N-methylmethylsulfonamide)acetyl)piperidine-2-carboxamide], for which the inhibition (commonly the drop in the measured response relative to a control, in per cent) at 33 µM in experiment [1] is 101%. In addition, the inhibition at 5 µM in experiment [2] is 100%.
For `CC(=O)N1CCCC[C@@H]1C(=O)Nc1ccc(-c2ccccc2OC(F)(F)F)c(Cl)c1` [Example 20, (R)-1-acetyl-N-(2-chloro-2′-(trifluoromethoxy)-[1,1′-biphenyl]-4-yl)piperidine-2-carboxamide], in that order: 101% and 99.7%.
For `O=C(Nc1ccc(-c2ccccc2OC(F)(F)F)c(Cl)c1)[C@H]1CCCCN1C(=O)Cn1cnnn1` [Example 57, (R)-1-(2-(1H-tetrazol-1-yl)acetyl)-N-(2-chloro-2′-(trifluoromethoxy)-[1,1′-biphenyl]-4-yl)piperidine-2-carboxamide], in that order: 103% and 101%.
